Results: patent US20130315982A1, “LIPOSOMAL DRUG COMPOSITION CONTAINING A POLYMERIC GUANIDINE DERIVATIVE” (MINDINVEST HOLDINGS LTD., priority 2010, published 2013)

Tested on: tumor cells
Experiment: Resistance study with 30 passages
Format: cell-based
Text: It has been shown that the problem can be solved by encapsulation of the polymeric guanidine derivate in PEGylated liposomes, which ensures that the drug substance reaches its target in higher concentrations, e.g. the malignant tumor cells. […] The commonly known cytostatics induce such cellular resistance mechanisms requiring higher, toxic doses, which cause severe side effects.

## poly-[2-(2-ethoxyethoxyethyl)guanidinium hydrochloride] [API]
  reduction of activity (induction of resistance): no reduction of activity
